According to ChEMBL document CHEMBL4602644, “Synthesis of PJOV56, a new quinoxalinyl-hydrazone derivative able to induce autophagy and apoptosis in colorectal cancer cells, and related compounds” (Bioorg Med Chem Lett, 2020):
The source made the active and inactive calls. The calls are words filed in the database; no cut-off is given here.

Legend:
[1] = test system: HCT-116; test: Induction of apoptosis in human HCT116 cells assessed as necrotic cells at 1.5 uM measured after 48 hrs by annexinV-PE/7-AAD staining based flow cytometric analysis (reference value: 0.16 %); assay type: functional
[2] = test system: HCT-116; test: Induction of autophagy in human HCT116 cells assessed as formation of acidic vesicular organelles at 3 to 6 uM measured after 48 hrs by acridine orange staining based confocal microscopy; assay type: functional, cell-based
[3] = test system: HCT-116; test: Cell cycle arrest in human HCT116 cells assessed as accumulation at S phase at 1.5 uM measured after 48 hrs by propidium iodide staining based flow cytometry (reference value: 33.29 %); assay type: functional
[4] = test system: HCT-116; test: Induction of apoptosis in human HCT116 cells assessed as early apoptotic cells at 6 uM measured after 48 hrs by annexin-V staining based flow cytometry (reference value: 0.34 %); assay type: functional
[5] = test system: HCT-116; test: Induction of morphological changes in human HCT116 cells assessed as increase in number of intracellular vesicles at 1.5 to 6 uM measured after 48 hrs by propidium iodide staining based flow cytometry; assay type: functional, cell-based
[6] = test system: HCT-116; test: Induction of autophagy in human HCT116 cells increase in Beclin 1 level at 3 uM measured after 48 hrs by Western blot analysis; assay type: functional, cell-based
[7] = test system: K562; test: Cytotoxicity against human K562 cells assessed as reduction in cell viability measured after 72 hrs by MTT assay; assay type: functional, cell-based; settings: K562, 72 h
[8] = test system: HCT-116; test: Induction of apoptosis in human HCT116 cells assessed as live cells at 1.5 uM measured after 48 hrs by annexinV-PE/7-AAD staining based flow cytometric analysis (reference value: 91.42 %); assay type: functional
[9] = test system: OVCAR-8; test: Cytotoxicity against human OVCAR8 cells assessed as cell growth inhibition at 5 ug/ml measured after 72 hrs by MTT assay relative to control; assay type: functional; settings: OVCAR-8, 72 h, read-out: GI
[10] = test system: SF-295; test: Cytotoxicity against human SF295 cells assessed as reduction in cell viability measured after 72 hrs by MTT assay; assay type: functional, cell-based; settings: SF-295, 72 h
[11] = test system: HCT-116; test: Cytotoxicity against human HCT116 cells assessed as reduction in cell viability measured after 24 hrs by MTT assay; assay type: functional, cell-based; settings: HCT-116, 24 h
[12] = test system: HCT-116; test: Induction of apoptosis in human HCT116 cells assessed as early apoptotic cells at 1.5 uM measured after 48 hrs by annexinV-PE/7-AAD staining based flow cytometric analysis (reference value: 6.53 %); assay type: functional
[13] = test system: HCT-116; test: Cell cycle arrest in human HCT116 cells assessed as accumulation at S phase at 6 uM measured after 48 hrs by propidium iodide staining based flow cytometry (reference value: 33.29 %); assay type: functional
[14] = test system: HepG2; test: Cytotoxicity against human HepG2 cells assessed as reduction in cell viability measured after 72 hrs by MTT assay; assay type: functional, cell-based; settings: HepG2, 72 h
[15] = test system: L929; test: Cytotoxicity against mouse L929 cells assessed as reduction in cell viability measured after 72 hrs by MTT assay; assay type: cell-based; settings: L929, 72 h
[16] = test system: HCT-116; test: Cell cycle arrest in human HCT116 cells assessed as accumulation at G0/G1 phase at 1.5 uM measured after 48 hrs by propidium iodide staining based flow cytometry (reference value: 41.67 %); assay type: functional
[17] = test system: HCT-116; test: Cell cycle arrest in human HCT116 cells assessed as accumulation at G0/G1 phase at 3 uM measured after 48 hrs by propidium iodide staining based flow cytometry (reference value: 41.67 %); assay type: functional
[18] = test system: MCF7; test: Cytotoxicity against human MCF7 cells assessed as reduction in cell viability measured after 72 hrs by MTT assay; assay type: functional, cell-based; settings: MCF7, 72 h
[19] = test system: HCT-116; test: Disruption of membrane integrity in human HCT116 cells assessed as decrease in viable cells at 6 uM measured after 48 hrs by propidium iodide staining based flow cytometry relative to control; assay type: functional
[20] = test system: HCT-116; test: Induction of apoptosis in human HCT116 cells assessed as late apoptotic cells at 1.5 uM measured after 48 hrs by annexinV-PE/7-AAD staining based flow cytometric analysis (reference value: 0.18 %); assay type: functional
[21] = test system: HCT-116; test: Disruption of membrane integrity in human HCT116 cells assessed as increase in non-viable cells at 6 uM measured after 48 hrs by propidium iodide staining based flow cytometry relative to control; assay type: functional
[22] = test system: HCT-116; test: Induction of morphological changes in human HCT116 cells assessed as discrete apoptotic cells at 6 uM measured after 48 hrs by propidium iodide staining based flow cytometry; assay type: functional, cell-based
[23] = test system: HCT-116; test: Disruption of membrane integrity in human HCT116 cells at 1.5 to 3 uM measured after 48 hrs by propidium iodide staining based flow cytometry; assay type: functional, cell-based
[24] = test system: HCT-116; test: Induction of apoptosis in human HCT116 cells assessed as late apoptotic cells at 6 uM measured after 48 hrs by annexinV-PE/7-AAD staining based flow cytometric analysis (reference value: 0.18 %); assay type: functional
[25] = test system: HCT-116; test: Induction of morphological changes in human HCT116 cells assessed as decrease in number of mitotic cells at 1.5 to 6 uM measured after 48 hrs by propidium iodide staining based flow cytometry; assay type: functional, cell-based
[26] = test system: HCT-116; test: Induction of apoptosis in human HCT116 cells assessed as early apoptotic cells at 3 uM measured after 48 hrs by annexinV-PE/7-AAD staining based flow cytometric analysis (reference value: 6.53 %); assay type: functional
[27] = test system: HCT-116; test: Induction of morphological changes in human HCT116 cells assessed as increase in size of intracellular vesicles at 1.5 to 6 uM measured after 48 hrs by propidium iodide staining based flow cytometry; assay type: functional, cell-based
[28] = test system: HCT-116; test: Induction of apoptosis in human HCT116 cells assessed as necrotic cells at 3 uM measured after 48 hrs by annexinV-PE/7-AAD staining based flow cytometric analysis (reference value: 0.16 %); assay type: functional
[29] = test system: HCT-116; test: Induction of apoptosis in human HCT116 cells assessed as increase in caspase 7 expression at 3 to 6 uM measured after 48 hrs by Western blot analysis; assay type: functional, cell-based
[30] = test system: HCT-116; test: Induction of autophagy in human HCT116 cells assessed as formation of autophagic vacuoles at 3 to 6 uM measured after 48 hrs by monodansylcadaverine staining based confocal microscopy; assay type: functional, cell-based
[31] = test system: HCT-116; test: Cell cycle arrest in human HCT116 cells assessed as accumulation at S phase at 3 uM measured after 48 hrs by propidium iodide staining based flow cytometry (reference value: 33.29 %); assay type: functional
[32] = test system: HCT-116; test: Cytotoxicity against human HCT116 cells assessed as reduction in cell viability measured after 72 hrs by MTT assay; assay type: functional, cell-based; settings: HCT-116, 72 h
[33] = test system: HCT-116; test: Disruption of membrane integrity in human HCT116 cells assessed as increase in non-viable cells at 3 uM measured after 48 hrs by propidium iodide staining based flow cytometry relative to control; assay type: functional
[34] = test system: HL-60; test: Cytotoxicity against human HL60 cells assessed as cell growth inhibition at 5 ug/ml measured after 72 hrs by MTT assay relative to control; assay type: functional; settings: HL-60, 72 h, read-out: GI
[35] = test system: HCT-116; test: Induction of apoptosis in human HCT116 cells assessed as live cells at 3 uM measured after 48 hrs by annexinV-PE/7-AAD staining based flow cytometric analysis (reference value: 91.42 %); assay type: functional
[36] = test system: HCT-116; test: Induction of autophagy in human HCT116 cells decrease in Beclin 1 level at 6 uM measured after 48 hrs by Western blot analysis; assay type: functional, cell-based

Question: With `C(=N\Nc1cnc2ccccc2n1)/c1ccccn1` as the compound, how does the Activity [1] read?
Answer: 0.63%

Question: And the Activity [2]?
Answer: Active

Question: What about the Activity [3] of the same compound?
Answer: 34.31%

Question: What about the Activity [4] of the same compound?
Answer: 25.6%

Question: What about the Activity [5] of the same compound?
Answer: Active

Question: And the Activity [6]?
Answer: Active

Question: What about the IC50 [7] of the same compound?
Answer: 2.62 µM

Question: What about the Activity [8] of the same compound?
Answer: 89.63%

Question: And the inhibition of growth at 5 µg/mL [9]?
Answer: 97.8%

Question: And the IC50 [10]?
Answer: 3.88 µM

Question: And the IC50 [11]?
Answer: > 20 µM

Question: And the Activity [12]?
Answer: 5.61%

Question: What about the Activity [13] of the same compound?
Answer: 29.41%

Question: And the IC50 [14]?
Answer: 7.35 µM

Question: What about the IC50 [15] of the same compound?
Answer: 2.27 µM

Question: And the Activity [16]?
Answer: 35.69%

Question: And the Activity [17]?
Answer: 14.45%

Question: And the IC50 [18]?
Answer: 7 µM

Question: What about the Activity [19] of the same compound?
Answer: 68.31%

Question: What about the Activity [20] of the same compound?
Answer: 1.14%

Question: And the Activity [21]?
Answer: 31.36%

Question: What about the Activity [22] of the same compound?
Answer: Active

Question: What about the Activity [23] of the same compound?
Answer: inactive

Question: What about the Activity [24] of the same compound?
Answer: 17.9%

Question: What about the Activity [25] of the same compound?
Answer: Active

Question: And the Activity [26]?
Answer: 5.18%

Question: What about the Activity [27] of the same compound?
Answer: Active

Question: And the Activity [28]?
Answer: 0.87%

Question: And the Activity [29]?
Answer: Active

Question: And the Activity [30]?
Answer: Active

Question: And the Activity [31]?
Answer: 55.35%

Question: And the IC50 [32]?
Answer: 1.83 µM

Question: And the Activity [33]?
Answer: 9.46%

Question: What about the inhibition of growth at 5 µg/mL [34] of the same compound?
Answer: 94.8%

Question: And the Activity [35]?
Answer: 90.36%

Question: And the Activity [36]?
Answer: Active
